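Briefly, cells in 96-well plates were exposed to five compound concentrations for 48 h, and endpoints were estimated by linear interpolation. GI50 = concentration required for 50% inhibition of growth.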 Calls of active or inactive are those of the source. No stated cut-off is given here; in the data, active = GI50 up to about 1.1 µM and inactive = higher.
Columns and labels:
Assay in all cases: growth of human tumour cells (NCI), 48 h
SF-268 = system: SF-268
MDA-MB-435 = system: MDA-MB-435
DMS-273 = system: DMS-273
OVCAR-8 = system: OVCAR-8
COLO 205 = system: COLO 205
A549 = system: A549
M14 = system: M14
DLD-1 = system: DLD-1
NCI-H522 = system: NCI-H522
NCI-H460 = system: NCI-H460
786-0 = system: 786-0
HT-29 = system: HT-29
MDA-N = system: MDA-N
OVCAR-4 = system: OVCAR-4
RPMI-8226 = system: RPMI-8226
SK-MEL-2 = system: SK-MEL-2
SF-295 = system: SF-295
DU-145 = system: DU-145
U-251 = system: U-251

## COc1ccc(NCc2cc(OC)c(OC)c(OC)c2)cc1
SF-268
  GI50: 0.698 µM (active)
MDA-MB-435
  GI50: 0.0711 µM (active)
DMS-273
  GI50: 0.178 µM (active)
OVCAR-8
  GI50: 0.716 µM (active)
COLO 205
  GI50: 0.291 µM (active)
A549
  GI50: 0.597 µM (active)
M14
  GI50: 0.265 µM (active)
DLD-1
  GI50: 0.421 µM (active)
NCI-H522
  GI50: 0.307 µM (active)
NCI-H460
  GI50: 0.385 µM (active)
786-0
  GI50: 0.583 µM (active)
HT-29
  GI50: 0.312 µM (active)
MDA-N
  GI50: 0.0867 µM (active)
OVCAR-4
  GI50: 17.3 µM (inactive)
RPMI-8226
  GI50: 0.612 µM (active)
SK-MEL-2
  GI50: 0.466 µM (active)
SF-295
  GI50: 0.294 µM (active)
DU-145
  GI50: 0.857 µM (active)
U-251
  GI50: 0.431 µM (active)
